According to patent US20240158412A1 (Faxian Therapeutics, LLC, priority 2021, published 2024):

biological target: USP7 (Homo sapiens, UniProt Q93009); test: biochemical
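Also: fluorescence intensity readout of USP7 enzymatic activity, reaction incubated 90 min at room temperature.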

Sequence of USP7 (Q93009 whole entry): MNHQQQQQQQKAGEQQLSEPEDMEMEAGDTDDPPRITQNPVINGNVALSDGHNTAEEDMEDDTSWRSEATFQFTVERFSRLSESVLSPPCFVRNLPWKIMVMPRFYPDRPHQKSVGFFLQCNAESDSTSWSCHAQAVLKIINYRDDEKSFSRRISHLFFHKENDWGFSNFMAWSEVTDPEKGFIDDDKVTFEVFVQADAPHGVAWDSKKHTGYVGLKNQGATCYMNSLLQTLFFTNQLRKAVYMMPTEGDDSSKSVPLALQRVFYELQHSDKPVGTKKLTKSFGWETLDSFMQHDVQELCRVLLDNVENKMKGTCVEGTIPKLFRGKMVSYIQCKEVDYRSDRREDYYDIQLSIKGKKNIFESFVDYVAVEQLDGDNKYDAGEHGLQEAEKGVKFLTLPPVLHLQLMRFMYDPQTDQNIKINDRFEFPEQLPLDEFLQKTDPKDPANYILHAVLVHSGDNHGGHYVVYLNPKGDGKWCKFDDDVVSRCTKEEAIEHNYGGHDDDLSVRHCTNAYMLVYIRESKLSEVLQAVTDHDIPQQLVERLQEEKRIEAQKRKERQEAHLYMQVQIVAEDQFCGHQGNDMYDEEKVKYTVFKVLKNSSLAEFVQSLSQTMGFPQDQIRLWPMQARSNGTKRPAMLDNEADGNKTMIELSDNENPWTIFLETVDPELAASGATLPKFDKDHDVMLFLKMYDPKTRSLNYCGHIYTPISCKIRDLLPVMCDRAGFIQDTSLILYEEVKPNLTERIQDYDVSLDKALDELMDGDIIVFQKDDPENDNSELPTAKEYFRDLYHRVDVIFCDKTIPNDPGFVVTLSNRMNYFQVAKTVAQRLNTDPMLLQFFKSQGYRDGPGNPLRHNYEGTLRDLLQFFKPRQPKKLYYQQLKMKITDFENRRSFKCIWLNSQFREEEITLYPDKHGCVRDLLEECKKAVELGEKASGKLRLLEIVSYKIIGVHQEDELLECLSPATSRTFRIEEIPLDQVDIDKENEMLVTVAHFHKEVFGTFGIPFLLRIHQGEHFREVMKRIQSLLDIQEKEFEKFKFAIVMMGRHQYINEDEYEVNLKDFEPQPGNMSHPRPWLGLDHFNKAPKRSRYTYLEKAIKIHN

| SMILES | IC50 [nM] |
| --- | --- |
| O=c1ccn(C2CC2)c(=O)n1Cc1cc2nccc(-c3cc(C(F)(F)F)cc4c3N(C3CNC5(CCC5)C3)CCC4)c2s1 (single isomer, unassigned) [Example 162b] | 101 to 1000 |
| Cc1cnn(Cc2cc3nccc(-c4cc(C#N)cc5c4N(C4CNC6(CCC6)C4)CCC5)c3s2)c(=O)c1 (single isomer, unassigned) [Example 164a] | < 10 |
| O=C1CCC(=O)N1Cc1cc2nccc(-c3cc(Cl)cc4c3N(C3CNC5(CCC5)C3)CCO4)c2s1 (single isomer, unassigned) [Example 171a] | 101 to 1000 |
| O=C1CCC(=O)N1Cc1cc2nccc(-c3cc(Cl)cc4c3N(C3CNC5(CCC5)C3)CCO4)c2s1 (single isomer, unassigned) [Example 171b] | < 10 |
| Cc1ccnn(Cc2cc3nccc(-c4cc(C(F)(F)F)cc5c4N(C4CNC6(CCC6)C4)CCO5)c3s2)c1=O (single isomer, unassigned) [Example 176a] | 101 to 1000 |
| O=C1CCC(=O)N1Cc1cc2nccc(-c3cc(Cl)cc4c3N(C3CNC5(CC(F)C5)C3)CCC4)c2s1 (single isomer, unassigned) [Example 177a] | < 10 |
| O=C1CCC(=O)N1Cc1cc2nccc(-c3cc(Cl)cc4c3N([C@@H]3CC[C@@]5(CCCN5)C3)CCC4)c2s1 (single isomer, unassigned) [Example 179b] | 10 to 100 |
| O=C1CCC(=O)N1Cc1cc2nccc(-c3cc(Cl)cc4c3N([C@@H]3CNC(CO)(CO)C3)CCC4)c2s1 (single isomer, unassigned) [Example 181a] | < 10 |
| O=C1CCC(=O)N1Cc1cc2nccc(-c3cc(Cl)cc4c3N([C@H]3CNC(CO)(CO)C3)CCC4)c2s1 (single isomer, unassigned) [Example 181b] | 10 to 100 |
| CC1(c2cnn(Cc3cc4nccc(-c5cc(C#N)cc6c5N([C@@H]5CN[C@@H](CO)C5)C[C@@H]5C[C@H]65)c4s3)c(=O)c2)CC1 (single isomer, unassigned) [Example 195b] | < 10 |
| COC(=O)[C@@]1(C)C[C@H](N2CCCc3cc(Cl)cc(-c4ccnc5cc(CN6C(=O)CCC6=O)sc45)c32)CN1 (single isomer, unassigned) [Example 203] | < 10 |
| COC(=O)[C@]1(C)C[C@H](N2CCCc3cc(Cl)cc(-c4ccnc5cc(CN6C(=O)CCC6=O)sc45)c32)CN1 (single isomer, unassigned) [Example 204] | 101 to 1000 |
| O=C1C2CC2C(=O)N1Cc1cc2nccc(-c3cc(Cl)cc4c3N([C@@H]3CNC(CO)(CO)C3)CCO4)c2s1 (single isomer, unassigned) [Example 212b] | 10 to 100 |
| O=C1CCC(=O)N1Cc1cc2nccc(-c3cc(Cl)cc4c3N([C@H]3CO[C@@H](CO)C3)CCO4)c2s1 (single isomer, unassigned) [Example 227a] | > 1000 |
| O=C1CCC(=O)N1Cc1cc2nccc(-c3cc(Cl)cc4c3N([C@H]3CO[C@H](CO)C3)CCO4)c2s1 (single isomer, unassigned) [Example 227b] | 101 to 1000 |
| O=C1CCC(=O)N1Cc1cc2nccc(-c3cc(Cl)cc4c3N(C3CO[C@@H](CO)C3)CCO4)c2s1 (single isomer, unassigned) [Example 227c] | > 1000 |
| O=c1ccn(CC(F)F)c(=O)n1Cc1cc2nccc(-c3cc(Cl)cc4c3N(C3CCNC3)C[C@H]3C[C@@H]43)c2s1 (stereo in doubt) [Example 115, 3-[[7-[(1aS,3R,7bR)-6-chloro-3-pyrrolidin-3-yl-1,1a,2,7b-tetrahydrocyclopropa[c]quinolin-4-yl]thieno[3,2-b]pyridin-2-yl]methyl]-1-(2,2-difluoroethyl)pyrimidine-2,4-dione] | < 10 |
| CC1(C)CC(N2CCCc3cc(C#N)cc(-c4ccnc5cc(Cn6ncc(C(C)(C)C)cc6=O)sc45)c32)CN1 (stereo in doubt) [Example 132, (S)-8-(2-((4-(tert-butyl)-6-oxopyridazin-1(6H)-yl)methyl)thieno[3,2-b]pyridin-7-yl)-1-(5,5-dimethylpyrrolidin-3-yl)-1,2,3,4-tetrahydroquinoline-6-carbonitrile] | < 10 |
| Cn1ccnc(Cc2cc3nccc(-c4cc(Cl)cc5c4N([C@@H]4CNC6(CCC6)C4)CCC5)c3s2)c1=O (stereo in doubt) [Example 160, 3-((7-(6-chloro-1-(5-azaspiro[3.4]octan-7-yl)-1,2,3,4-tetrahydroquinolin-8-yl)thieno[3,2-b]pyridin-2-yl)methyl)-1-methylpyrazin-2(1H)-one] | 101 to 1000 |
| CC(C)(C)c1cnn(Cc2cc3nccc(-c4cc(Cl)cc5c4N(C4CNC(CO)(CO)C4)CCO5)c3s2)c(=O)c1 (stereo in doubt) [Example 213a, (R)-2-((7-(4-(5,5-bis(hydroxymethyl)pyrrolidin-3-yl)-7-chloro-3,4-dihydro-2H-benzo[b][1,4]oxazin-5-yl)thieno[3,2-b]pyridin-2-yl)methyl)-5-(tert-butyl)pyridazin-3(2H)-one] | 10 to 100 |
| CCn1c(N(C)C)cc(=O)n(Cc2cc3nccc(-c4cc(C#N)cc5c4N([C@H]4CN[C@](C)(CO)C4)CCO5)c3s2)c1=O (stereo in doubt) [Example 219, 5-(2-((4-(dimethylamino)-3-ethyl-2,6-dioxo-2,3-dihydropyrimidin-1(6H)-yl)methyl)thieno[3,2-b]pyridin-7-yl)-4-((3R,5S)-5-(hydroxymethyl)-5-methylpyrrolidin-3-yl)-3,4-dihydro-2H-benzo[b][1,4]oxazine-7-carbonitrile] | < 10 |

Next, values leading:

| IC50 [nM] | SMILES |
| --- | --- |
| 101 to 1000 | Cc1cnn(Cc2cc3nccc(-c4cc(C#N)cc5c4N(C4CNC6(CCC6)C4)CCC5)c3s2)c(=O)c1 (single isomer, unassigned) [Example 164b] |
| 10 to 100 | O=C1CCC(=O)N1Cc1cc2nccc(-c3cc(Cl)cc4c3N(C3CNC5(CCC5)C3)C(=O)CO4)c2s1 (single isomer, unassigned) [Example 173a] |
| 101 to 1000 | O=C1CCC(=O)N1Cc1cc2nccc(-c3cc(Cl)cc4c3N(C3CNC5(CCC5)C3)C(=O)CO4)c2s1 (single isomer, unassigned) [Example 173b] |
| 101 to 1000 | O=C1CCC(=O)N1Cc1cc2nccc(-c3cc(C(F)(F)F)cc4c3N(C3CNC5(CCC5)C3)CCO4)c2s1 (single isomer, unassigned) [Example 175a] |
| < 10 | O=C1CCC(=O)N1Cc1cc2nccc(-c3cc(C(F)(F)F)cc4c3N(C3CNC5(CCC5)C3)CCO4)c2s1 (single isomer, unassigned) [Example 175b] |
| 10 to 100 | O=C1CCC(=O)N1Cc1cc2nccc(-c3cc(Cl)cc4c3N([C@@H]3CCC5(CCCN5)C3)CCC4)c2s1 (single isomer, unassigned) [Example 179a] |
| < 10 | CC(C)(C)c1cnn(Cc2cc3nccc(-c4cc(C#N)cc5c4N([C@@H]4CN[C@@H](CO)C4)C[C@H]4C[C@@H]54)c3s2)c(=O)c1 (single isomer, unassigned) [Example 192a] |
| < 10 | CC(C)(C)c1cnn(Cc2cc3nccc(-c4cc(C#N)cc5c4N([C@@H]4CN[C@@H](CO)C4)C[C@@H]4C[C@H]54)c3s2)c(=O)c1 (single isomer, unassigned) [Example 192b] |
| > 1000 | CC(C)(C)c1cnn(Cc2cc3nccc(-c4cc(C#N)cc5c4N([C@H]4CN[C@@H](CO)C4)C[C@@H]4C[C@H]54)c3s2)c(=O)c1 (single isomer, unassigned) [Example 193a] |
| 10 to 100 | CC(C)(C)c1cnn(Cc2cc3nccc(-c4cc(C#N)cc5c4N([C@H]4CN[C@@H](CO)C4)C[C@H]4C[C@@H]54)c3s2)c(=O)c1 (single isomer, unassigned) [Example 193b] |
| < 10 | CC1(c2cnn(Cc3cc4nccc(-c5cc(C#N)cc6c5N([C@@H]5CN[C@@H](CO)C5)C[C@H]5C[C@@H]65)c4s3)c(=O)c2)CC1 (single isomer, unassigned) [Example 195a] |
| 101 to 1000 | COC(=O)[C@@]1(C)C[C@@H](N2CCCc3cc(Cl)cc(-c4ccnc5cc(CN6C(=O)CCC6=O)sc45)c32)CN1 (single isomer, unassigned) [Example 201] |
| 10 to 100 | COC(=O)[C@]1(C)C[C@@H](N2CCCc3cc(Cl)cc(-c4ccnc5cc(CN6C(=O)CCC6=O)sc45)c32)CN1 (single isomer, unassigned) [Example 202] |
| < 10 | O=C1C2CC2C(=O)N1Cc1cc2nccc(-c3cc(Cl)cc4c3N([C@H]3CNC(CO)(CO)C3)CCO4)c2s1 (single isomer, unassigned) [Example 212a] |
| 10 to 100 | O=C1CCC(=O)N1Cc1cc2nccc(-c3cc(Cl)cc4c3C3(CCC4)CNCCO3)c2s1 (single isomer, unassigned) [Example 229a] |
| > 1000 | O=C1CCC(=O)N1Cc1cc2nccc(-c3cc(Cl)cc4c3C3(CCC4)CNCCO3)c2s1 (single isomer, unassigned) [Example 229b] |
| < 10 | Cn1ccc(=O)n(Cc2cc3nccc(-c4cc(C#N)cc5c4N(C4CNC(C)(C)C4)CCC5)c3s2)c1=O (stereo in doubt) [Example 121, (S)-1-(5,5-dimethylpyrrolidin-3-yl)-8-(2-((3-methyl-2,6-dioxo-3,6-dihydropyrimidin-1(2H)-yl)methyl)thieno[3,2-b]pyridin-7-yl)-1,2,3,4-tetrahydroquinoline-6-carbonitrile] |
| 10 to 100 | N#Cc1cc(-c2ccnc3cc(Cn4ncc(C5(C(F)(F)F)CC5)cc4=O)sc23)c2c(c1)C1CC1CN2[C@@H]1CN[C@@H](CO)C1 (stereo in doubt) [Example 194b, (1aS,7bR)-3-((3S,5R)-5-(hydroxymethyl)pyrrolidin-3-yl)-4-(2-((6-oxo-4-(1-(trifluoromethyl)cyclopropyl)pyridazin-1(6H)-yl)methyl)thieno[3,2-b]pyridin-7-yl)-1a,2,3,7b-tetrahydro-1H-cyclopropa[c]quinoline-6-carbonitrile] |
| < 10 | CC(C)(C)c1cnn(Cc2cc3nccc(-c4cc(Cl)cc5c4N(C4CNC(CO)(CO)C4)CCO5)c3s2)c(=O)c1 (stereo in doubt) [Example 213b, (S)-2-((7-(4-(5,5-bis(hydroxymethyl)pyrrolidin-3-yl)-7-chloro-3,4-dihydro-2H-benzo[b][1,4]oxazin-5-yl)thieno[3,2-b]pyridin-2-yl)methyl)-5-(tert-butyl)pyridazin-3(2H)-one] |
